Source: patent publication US20050020501A1, “Methods of modulating the activity of mura” (SmithKline Beecham Corporation and SmithKline Beechm p.l.c., priority 2000, published 2005)
Values after ≈ are worked out from the molar mass of the structure shown. “Also recorded” adds a separate entry of the source. Where a name gives a salt, the structure may show the parent alone. Read-outs that look alike come from different tables or passages of the source.

Tests used:
[1] = molecular target: T1, EPSP Synthase (S. pneumoniae) (Streptococcus pneumoniae serotype 4, UniProt Q9S400); experiment: EPSPS kinetic assay, fluorescence coupled detection of inorganic phosphate release; format: biochemical; settings: for Inhibition type vs. S3P / Inhibition type vs. PEP: EPSP synthase; for Inhibition type vs. S3P: varied substrate S3P; for Inhibition of EPSPS (in words): rosolic acid tested up to 2 mM; for Inhibition type vs. PEP: varied substrate PEP
T1 construct: made in house
From the text: (§1) All chemicals including ATA and its salt forms are from Aldrich. SKF-26488-W3 was isolated as a high-throughput screen hit against EPSPS. Escherichia coli MurA (Marquardt, et al., J. Bacteriol., Vol. 174: 5748-5752 (1992)) and Streptococcus pneumoniae EPSPS (Du, et al., Eur. J. Biochem., Vol. 267: 222-227 (2000)) were expressed and purified as described previously.
(§2) The assays for both EPSPS and MurA are based on the detection of inorganic phosphate release. A fluorescence coupled assay was used for EPSPS and was performed in 100 mM HEPES, pH 7.0, 1 mM NH4Cl, 100 mM KCl. (Du, et al., Eur. J. Biochem., Vol. 267: 222-227 (2000)). MurA was assayed in 50 mM HEPES, pH 7.5, 1 mM DTI using the Malachite Green reagent (Lanzetta, et al., Anal. Biochem., Vol. 100: 95-97 (1979)). The Ki values were determined with fixed concentration of one substrate and varying concentrations of the other substrate and inhibitor. Data were analyzed using GraFit v4.09 (Erithacus Software Ltd.).

[2] = molecular target: T2, MurA (E. coli) (Escherichia coli, UniProt P0A749); experiment: MurA kinetic assay, Malachite Green detection of inorganic phosphate release; format: biochemical; settings: for Ki / Inhibition type vs. PEP / Inhibition type vs. UDPAG: MurA
T2 construct: made in house
From the text: as §1, §2

[3] = system: S. pneumoniae 100993; experiment: Antibacterial activity, minimum inhibitory concentration; format: cell-based, Streptococcus pneumoniae; settings: for Effect of adding aromatic amino acids and PABA on antibacterial activity in minimal media: minimal media with versus without aromatic amino acids and PABA; for Antibacterial activity compared across media: TH media and minimal media with and without supplements
Procedure: The antibacterial activity of ATA against S.pneumoniae100993 was measured in Todd Hewitt media, minimal media, and minimal media+aromatic amino acids (100 mg/L) and p-aminobenzoic acid (PABA) (0.2 mg/L). Glyphosate, chloramphenical and ciprofloxacin were controls.

[4] = Streptococcus pneumoniae, 100993, read-out: Minimum Inhibitory Concentration, Minimal media
[5] = Streptococcus pneumoniae, 100993, read-out: Minimum Inhibitory Concentration, Minimal media w/aa's + PABA
[6] = Streptococcus pneumoniae, 100993, read-out: Minimum Inhibitory Concentration, TH
[7] = Streptococcus pneumoniae, 100993, Chemically Defined Medium for Group A Streptococci without aromatic amino acids and PABA, read-out: Minimum Inhibitory Concentration, Minimal media
[8] = Streptococcus pneumoniae, 100993, JRH Strep media with aromatic amino acids and PABA, read-out: Minimum Inhibitory Concentration, Minimal media w/aa's + PABA
[9] = Streptococcus pneumoniae, 100993, Todd Hewitt broth, read-out: Minimum Inhibitory Concentration, TH

T2 sequence (P0A749 whole entry): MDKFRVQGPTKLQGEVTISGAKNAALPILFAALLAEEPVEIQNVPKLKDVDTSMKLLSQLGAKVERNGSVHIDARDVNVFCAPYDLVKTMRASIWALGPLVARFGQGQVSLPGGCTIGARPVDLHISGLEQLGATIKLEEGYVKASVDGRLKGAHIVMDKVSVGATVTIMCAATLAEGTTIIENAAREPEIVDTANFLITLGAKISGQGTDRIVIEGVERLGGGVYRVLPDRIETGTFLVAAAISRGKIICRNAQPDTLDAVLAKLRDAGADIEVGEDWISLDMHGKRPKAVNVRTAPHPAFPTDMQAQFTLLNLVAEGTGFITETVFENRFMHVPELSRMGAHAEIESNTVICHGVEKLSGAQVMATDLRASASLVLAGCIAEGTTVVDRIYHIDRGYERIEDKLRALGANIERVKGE
T1 sequence (Q9S400 whole entry): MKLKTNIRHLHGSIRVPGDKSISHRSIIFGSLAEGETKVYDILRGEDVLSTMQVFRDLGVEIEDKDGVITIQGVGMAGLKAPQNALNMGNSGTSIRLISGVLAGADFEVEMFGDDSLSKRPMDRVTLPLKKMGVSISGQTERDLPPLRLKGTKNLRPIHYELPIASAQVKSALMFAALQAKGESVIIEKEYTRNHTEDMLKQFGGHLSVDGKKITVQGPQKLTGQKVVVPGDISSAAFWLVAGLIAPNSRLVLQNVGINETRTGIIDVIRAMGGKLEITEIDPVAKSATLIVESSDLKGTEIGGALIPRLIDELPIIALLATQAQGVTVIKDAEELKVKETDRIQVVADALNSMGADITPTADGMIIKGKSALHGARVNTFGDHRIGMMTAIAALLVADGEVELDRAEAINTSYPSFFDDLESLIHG

N.N.N.O=C(O)C1=CC(=C(c2ccc(O)c(C(=O)O)c2)c2ccc(O)c(C(=O)O)c2)C=CC1=O [ATA ammonium salt]
Inhibition type vs. S3P [1]: competitive inhibitors vs. S3P
Inhibition of EPSPS (in words) [1]: specific inhibitors of EPSPS

O=C(O)C1=CC(=C(c2ccc(O)c(C(=O)O)c2)c2ccc(O)c(C(=O)O)c2)C=CC1=O [ATA sodium salt]
Inhibition type vs. S3P [1]: competitive inhibitors vs. S3P
Inhibition of EPSPS (in words) [1]: specific inhibitors of EPSPS

O=C(O)C1=CC(=C(c2ccc(O)c(C(=O)O)c2)c2ccc(O)c(C(=O)O)c2)C=CC1=O [Aurin Tricarboxylic Acid]
Potency against MurA relative to RA ([2]; ATA versus RA, MurA from Escherichia coli): ~200 fold
Ki ([2]; Ki vs. UDPAG, varied substrate UDPAG): 0.23 µM
Inhibition type vs. PEP ([2]; varied substrate PEP): Non-specific inhibition
Inhibition type vs. UDPAG ([2]; varied substrate UDPAG): Competitive
Inhibition type vs. UDPAG ([2]; varied substrate UDPAG, listed as ATA): competitive vs UDPAG
Inhibition pattern of MurA versus both substrates (in words) ([2]; versus UDPAG and PEP): specific inhibition patterns versus both substrates
MIC [3, 4]: 2 µg/mL (≈ 4.74 µM)
MIC [3, 5]: 4 µg/mL
MIC [3, 6]: > 128 µg/mL
Activity in minimal media relative to TH media ([3]; minimal media versus TH media): more than 64 fold
Effect of adding aromatic amino acids and PABA on antibacterial activity in minimal media [3]: not reversed
Inhibition type vs. PEP [1]: Noncompetitive
Inhibition type vs. S3P [1]: Competitive
Inhibition type vs. S3P ([1]; listed as aurin tricarboxylic acid): competitive inhibitors vs. S3P
Ki ([1]; Ki vs. S3P, EPSPS, competitive vs. S3P, range given for ATA and its sodium and ammonium salts together): 2.8 to 4.5 µM

O=C(N[C@H](CO)[C@H](O)c1ccc([N+](=O)[O-])cc1)C(Cl)Cl [Chloramphenicol]
MIC [3, 7]: 2 µg/mL (≈ 6.19 µM)
MIC [3, 8]: 2 µg/mL
MIC [3, 9]: 2 µg/mL (≈ 6.19 µM)
Antibacterial activity compared across media [3]: substantially the same

O=C(O)c1cn(C2CC2)c2cc(N3CCNCC3)c(F)cc2c1=O [Ciprofloxacin]
MIC [3, 7]: 2 µg/mL (≈ 6.04 µM)
MIC [3, 8]: 2 µg/mL
MIC [3, 9]: 2 µg/mL (≈ 6.04 µM)
Antibacterial activity compared across media [3]: substantially the same

O=C(O)CNCP(=O)(O)O [Glyphosate]
MIC [3, 4]: 512 µg/mL (≈ 3030 µM)
MIC [3, 5]: > 512 µg/mL
MIC [3, 6]: > 512 µg/mL
Antibacterial activity in TH media (in words) ([3]; TH media): no antibacterial activity
Effect of adding aromatic amino acids and PABA on antibacterial activity in minimal media [3]: reversed

O=C1C=CC(=C(c2ccc(O)cc2)c2ccc(O)cc2)C=C1 [Rosolic Acid]
Inhibition type vs. PEP ([2]; varied substrate PEP): Mixed type inhibition
Ki ([2]; varied substrate PEP, mixed type inhibition, second constant, read-out: Ki′ vs. PEP): 273 µM
Ki ([2]; varied substrate PEP, mixed type inhibition, read-out: Ki vs. PEP): 10.9 µM
Inhibition type vs. UDPAG ([2]; varied substrate UDPAG): Competitive
Inhibition type vs. UDPAG ([2]; varied substrate UDPAG, listed as RA): competitive vs UDPAG; also recorded: competitive inhibitor versus UDPAG, although a poor one
Ki ([2]; varied substrate UDPAG, read-out: Ki vs. UDPAG): 44.7 µM
Inhibition type vs. PEP [1]: No inhibition (up to 2 mM)
Inhibition type vs. S3P [1]: No inhibition (up to 2 mM)
Inhibition of EPSPS (in words) [1]: does not inhibit EPSPS up to 2 mM

O=C(O)C1=CC(=C(c2ccc(O)c(C(=O)O)c2)c2ccc(O)c(C(=O)O)c2)C=CC1=O [SKB-26488-W3, aurin tricarboxylic acid]
IC50 against EPSPS ([1]; high-throughput screening of EPSPS): in the μM range
